Tests used:
Test in all cases: relative viability (nuclei count vs DMSO), 5 days (fraction); higher = more cells survive
[1] = compound: Cc1nc(C(=O)NCC(=O)O)c(O)c2ccc(Oc3ccccc3)cc12 [FG-4592] + CS(=O)(=O)CCNCc1ccc(-c2ccc3ncnc(Nc4ccc(OCc5cccc(F)c5)c(Cl)c4)c3c2)o1 [Lapatinib] (partner 2 µM)
How it was run: (§1)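 Medians of duplicate plates are given as relative viability. That measure is the nuclei count in treated wells divided by the count in vehicle wells. Counts were taken on 4× images of lung cancer cell lines in 1536-well plates, 5 days after pin-tool dosing the day after seeding with one drug alone or a fixed anchor-drug dose plus five library-drug doses (not always all listed) in √10 steps.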

[2] = compound: Cc1nc(C(=O)NCC(=O)O)c(O)c2ccc(Oc3ccccc3)cc12 [FG-4592] + Cc1nc(NC(=O)N2CCC[C@H]2C(N)=O)sc1-c1ccnc(C(C)(C)C(F)(F)F)c1 [Alpelisib] (partner 2 µM)
How it was run: as §1

[3] = compound: CC1=CC(=C(N1C2=CC=C(C=C2)Cl)C)C(=O)CN3CCCCC3 [IU1-47] + CS(=O)(=O)CCNCc1ccc(-c2ccc3ncnc(Nc4ccc(OCc5cccc(F)c5)c(Cl)c4)c3c2)o1 [Lapatinib] (partner 2 µM)
How it was run: as §1

[4] = compound: CC1=CC(=C(N1C2=CC=C(C=C2)Cl)C)C(=O)CN3CCCCC3 [IU1-47] + CS(=O)(=O)N1CCN(Cc2cc3nc(-c4cccc5[nH]ncc45)nc(N4CCOCC4)c3s2)CC1 [Pictilisib] (partner 1 µM)
How it was run: as §1

Row | Cell Line | relative viability ([1]; first compound 0.08 µM) | relative viability ([1]; first compound 0.253 µM) | relative viability ([1]; first compound 0.8 µM) | relative viability ([1]; first compound 2.53 µM) | relative viability ([1]; first compound 8 µM) | relative viability ([2]; first compound 0.08 µM) | relative viability ([2]; first compound 0.253 µM) | relative viability ([2]; first compound 0.8 µM) | relative viability ([2]; first compound 2.53 µM) | relative viability ([2]; first compound 8 µM) | relative viability ([3]; first compound 0.08 µM) | relative viability ([3]; first compound 0.253 µM) | relative viability ([3]; first compound 0.8 µM) | relative viability ([3]; first compound 8 µM) | relative viability ([4]; first compound 0.08 µM) | relative viability ([4]; first compound 0.253 µM) | relative viability ([4]; first compound 0.8 µM) | relative viability ([4]; first compound 8 µM) | relative viability ([3]; first compound 2.53 µM) | relative viability ([4]; first compound 2.53 µM)
1 | NCI-H1944 | 0.712 | 0.759 | 0.576 | 0.71 | 0.768 | 0.794 | 0.801 | 0.692 | 0.853 | 0.836 | 0.835 | 0.845 | 0.779 | 0.801 | 0.361 | 0.371 | 0.335 | 0.356 |  | 
2 | EPLC-272H | 1.12 | 0.795 | 0.586 | 0.962 | 0.916 | 0.834 | 0.799 | 0.643 | 0.946 | 0.887 | 1.16 | 0.925 | 0.965 | 0.528 | 0.301 | 0.318 | 0.313 | 0.185 |  | 
3 | EBC-1 | 0.24 | 0.25 | 0.206 | 0.201 | 0.232 | 0.895 | 0.816 | 0.736 | 0.693 | 0.814 | 0.214 | 0.216 | 0.218 | 0.205 | 0.45 | 0.387 | 0.416 | 0.336 | 0.226 | 0.501
4 | NCI-H1915 | 0.956 | 0.933 | 0.931 | 0.943 | 1.04 | 1.04 | 1.02 | 1.05 | 1.01 | 1.05 | 0.992 | 1.01 | 0.976 | 0.999 | 0.854 | 0.915 | 0.977 | 0.985 |  | 
5 | NCI-H596 | 1.04 | 1.01 |  | 1.02 | 0.847 | 0.418 | 0.482 |  | 0.499 | 0.527 | 1.04 | 1.11 | 1.02 | 0.989 | 0.393 | 0.367 | 0.405 | 0.393 | 1.2 | 0.429
6 | NCI-H322M | 0.451 | 0.621 | 0.631 | 0.646 | 0.633 | 0.194 | 0.797 | 0.595 | 0.941 | 0.852 | 0.574 | 0.622 | 0.507 | 0.561 | 0.56 | 0.478 | 0.514 | 0.513 | 0.633 | 0.517
7 | NCI-H1299 | 0.969 | 0.941 | 0.981 | 0.954 | 0.988 | 1.06 | 0.999 | 1.05 | 1.04 | 1.04 | 0.962 | 0.982 | 0.975 | 0.934 | 0.893 | 0.881 | 0.749 | 0.911 | 1.02 | 1.05
8 | NCI-H2228 | 1.46 | 0.778 | 0.84 | 0.844 | 0.864 | 0.536 | 0.545 | 0.759 | 0.766 | 0.637 | 0.974 | 0.885 | 1.19 | 0.734 | 0.497 | 0.506 | 0.28 | 0.229 | 0.833 | 0.28
9 | IA-LM | 0.675 | 0.78 | 0.66 | 0.711 | 0.567 | 0.827 | 0.707 | 0.878 | 0.54 | 0.433 |  | 1.08 | 0.832 | 0.664 | 0.333 | 0.374 | 0.306 | 0.348 | 0.997 | 0.394

— the supplement of paper PMC10307832
